Data reported in patent US11976054B2, “Amide derivative and preparation method therefore and use thereof in medicine” (Chengdu Baiyu Pharmaceutical Co., Ltd., priority 2019, dated 2024).

Experiments:
[1] = system: Human monocyte cell line THP-1; test: Detection of THP-1 cell pyroptosis (Caspase-Glo 1 Inflammasome Assay); type: cell-based; conditions: 20 nM PMA 48 h, 1 μg/mL LPS, compound 3 h
In short: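 Differentiated with 20 nM PMA for 48 h (50,000 cells/well), then given serum-free medium with 1 μg/mL LPS and compound in a 10-point, 3-fold series from 10 μM for 3 h at 37 °C. Caspase-1 activity read with Caspase-Glo 1 Inflammasome kit; IC50 calculated.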

[2] = Pharmacokinetic analysis of compounds in rats; type: in vivo, SD rats; conditions: for F %: po 10 mg/kg vs iv 1 mg/kg
Protocol: Healthy adult SD rats weighing 180-220 g were fasted (free access to water) overnight and divided into tail vein administration group and intragastric administration group. The tail vein administration group was subjected to blood collection of 0.1 mL from orbital venous plexus before the administration and 5 min, 15 min, 0.5 h, 1 h, 2 h, 4 h, 8 h, 12 h and 24 h after the administration, and plasma was separated out by centrifugation at 4° C. for 5 min and stored at −20° C. for test. The intragastric administration group was subjected to blood collection of 0.1 mL from orbital venous plexus before the administration and 5 min, 15 min, 0.5 h, 1 h, 2 h, 4 h, 8 h, 12 h and 24 h after the administration, and the subsequent treatment procedures were the same as those of the tail vein injection group. The concentration of parent drug in the plasma was determined by LC-MS/MS.

[3] = system: Rat dorsal air pouch models; test: Rat dorsal air pouch pharmacodynamic models (sodium urate); type: in vivo, SD rats; conditions: air pouch exudate 5 h after 1% sodium urate; for IL-1β concentration in exudate: ELISA
Protocol: Healthy adult male SD rats weighing 180-220 g were purchased, and rat dorsal air pouch models were constructed after adaptive feeding of the rats. On day 1, day 4 and day 7 of modeling, 20 mL of sterile air was injected subcutaneously into the back of rats by means of injection needles, and the air pouch was maintained at an inflated state. On day 8, 50 mg/kg compound or vehicle control was administered intragastrically. 5 mL of 1% sodium urate suspension was injected into the dorsal air pouch, and air pouch exudate was collected 5 h later. 40 μL of the exudate was taken for leukocyte counting. The remaining exudate was centrifuged at 1500 rpm for 20 min, and the supernatant was collected to detect the expression level of IL-1β by ELISA (BD, Human IL-1β ELISA Set II, Cat #557953).

[4] = system: IL-1β release in human PBMCs; test: Assay of IL-1β release in human PBMCs; type: cell-based; conditions: 10 ng/mL LPS 3 h, compound 0.5 h, 5 mM ATP 1 h, ELISA
Protocol: 5 mL of human venous whole blood from a healthy donor was placed in a Li-heparin tube. PBMCs were isolated and incubated in a culture medium containing 10 ng/mL LPS at 37° C./5% CO2 for 3 h. Cells were plated in a 96-well plate at 50 μL per well. 25 μL of compound or solvent control was added to each well and 3-fold diluted in gradient from a maximum concentration of 10 μM, and 8 gradient concentrations were set. The mixtures were incubated for 0.5 h. 25 μL of ATP at a final concentration of 5 mM was added to each well, and the resulting mixtures were incubated for 1 h. After the incubation, the mixtures were centrifuged at 1500 rpm for 20 min, and the supernatant was collected to detect the expression level of […] by ELISA (BD, Human IL-1β ELISA Set II, Cat #557953). IC50 was calculated using GraphPad Prism7.0 software. The results are shown in Table 2, which indicate that: the compounds disclosed herein down-regulate release of mature IL-1β by inhibiting the activity of Caspase-1, and the IC50 is <50 nM.

[5] = SD rats, iv (tail vein), 1 mg/kg, plasma
[6] = SD rats, po (intragastric), 10 mg/kg, plasma
[7] = Homo sapiens, THP-1, THP-1 pyroptosis

Compound: C[C@@H](c1ccc2c(c1NC(=O)NS(=N)(=O)c1cc(C(C)(C)O)co1)CCC2)C1CC1 (mixture of isomers) [Compound 6-1, (RS, RC)- and (SS, RC)-N-((5-(-1-cyclopropylethyl)-2,3-dihydro-1H-inden-4-yl)carbamoyl)-4-(2-hydroxypropan-2-yl)furan-2-sulfonimidamide]
- IC50 ([1]; THP-1 pyroptosis): ≤ 100 nM
- AUC [2, 5]: 6312 ng·h/mL
- Cl [2, 5]: 2.7 mL/min/kg
- Vss [2, 5]: 0.26 L/kg
- t1/2 [2, 5]: 1.6 h
- F % ([2]; SD rats): 65.8%
- AUC [2, 6]: 41521 ng·h/mL
- Cmax [2, 6]: 13900 ng/mL
- t1/2 [2, 6]: 2.5 h
- Leukocyte concentration (10^6/mL) ([3]; 50 mg/kg intragastric): 1.99 ± 0.4 10^6/mL
- IL-1β concentration in exudate ([3]; 50 mg/kg intragastric): 895.7 ± 266.4 pg/mL

Compound: CC(c1ccc2c(c1NC(=O)NS(=N)(=O)c1cc(C(C)(C)O)co1)CCC2)C1CC1 (racemic) [Compound 8-1, (RS, SC)- and (SS, SC)-N-((5-(1-cyclopropylethyl)-2,3-dihydro-1H-inden-4-yl)carbamoyl)-4-(2-hydroxypropan-2-yl)furan-2-sulfonimidamide]
- IC50 ([1]; THP-1 pyroptosis): ≤ 100 nM
- IC50 [4]: 26.3 nM
- AUC [2, 5]: 2557 ng·h/mL
- Cl [2, 5]: 6.8 mL/min/kg
- Vss [2, 5]: 0.296 L/kg
- t1/2 [2, 5]: 0.74 h
- F % ([2]; SD rats): 56.2%
- AUC [2, 6]: 14367 ng·h/mL
- Cmax [2, 6]: 6397 ng/mL
- t1/2 [2, 6]: 2.4 h
- Leukocyte concentration (10^6/mL) ([3]; 50 mg/kg intragastric): 2.25 ± 0.5 10^6/mL
- IL-1β concentration in exudate ([3]; 50 mg/kg intragastric): 1522.5 ± 313.2 pg/mL

Compound: CC(C)(O)c1coc(S(=N)(=O)NC(=O)Nc2c(CC3CCC3)ccc3c2CCC3)c1 (single isomer, unassigned) [Compound 18-2, RS- and SS-N-((5-(cyclobutylmethyl)-2,3-dihydro-1H-inden-4-yl)carbamoyl)-4-(2-hydroxypropan-2-yl)furan-2-sulfonimidamide]
- IC50 ([1]; THP-1 pyroptosis): ≤ 100 nM
- IC50 [4]: 11.2 nM
- AUC ([2]; rat, in vivo, iv, 1 mg/kg): 3691 ng·h/mL
- Cl ([2]; rat, in vivo, iv, 1 mg/kg): 5.6 mL/min/kg
- Vss ([2]; rat, in vivo, iv, 1 mg/kg): 0.346 L/kg
- t1/2 ([2]; rat, in vivo, iv, 1 mg/kg): 0.86 h
- AUC ([2]; rat, in vivo, po, 10 mg/kg): 28427 ng·h/mL
- Cmax ([2]; rat, in vivo, po, 10 mg/kg): 16600 ng/mL
- t1/2 ([2]; rat, in vivo, po, 10 mg/kg): 3.1 h
- Leukocyte concentration (10^6/mL) ([3]; 50 mg/kg intragastric): 1.72 ± 0.3 10^6/mL
- IL-1β concentration in exudate ([3]; 50 mg/kg intragastric): 795.5 ± 232.8 pg/mL

Compound: C[C@@H](c1cc(F)c2c(c1NC(=O)N[S@@](=N)(=O)c1cc(C(C)(C)O)co1)CCC2)C1CC1 (single isomer, unassigned) [Compound 42-2]
- IC50 [1, 7]: ≤ 100 nM
- IC50 ([4]; PBMC): 3.2 nM
- AUC ([2]; SD, rat, in vivo, iv, 1 mg/kg): 1980 ng·h/mL
- Vd ([2]; SD, rat, in vivo, iv, 1 mg/kg): 0.503 L/kg
- clearance ([2]; SD, rat, in vivo, iv, 1 mg/kg): 8.6 mL/min/kg
- half-life ([2]; SD, rat, in vivo, iv, 1 mg/kg): 0.79 h
- bioavailability ([2]; SD, rat, in vivo, po): 87.2%
- AUC ([2]; SD, rat, in vivo, po, 10 mg/kg): 17300 ng·h/mL
- Cmax ([2]; SD, rat, in vivo, po, 10 mg/kg): 8500 ng/mL
- half-life ([2]; SD, rat, in vivo, po, 10 mg/kg): 2.1 h

Compound: C[C@H](c1cc(F)c2c(c1NC(=O)N[S@@](=N)(=O)c1cc(C(C)(C)O)co1)CCC2)C1CC1 (single isomer, unassigned) [Compound 44-2]
- IC50 [1, 7]: ≤ 100 nM
- IC50 ([4]; PBMC): 16.3 nM
- AUC ([2]; SD, rat, in vivo, iv, 1 mg/kg): 1620 ng·h/mL
- Vd ([2]; SD, rat, in vivo, iv, 1 mg/kg): 0.537 L/kg
- clearance ([2]; SD, rat, in vivo, iv, 1 mg/kg): 10.5 mL/min/kg
- half-life ([2]; SD, rat, in vivo, iv, 1 mg/kg): 0.93 h
- bioavailability ([2]; SD, rat, in vivo, po): 89.1%
- AUC ([2]; SD, rat, in vivo, po, 10 mg/kg): 14500 ng·h/mL
- Cmax ([2]; SD, rat, in vivo, po, 10 mg/kg): 6380 ng/mL
- half-life ([2]; SD, rat, in vivo, po, 10 mg/kg): 2.4 h

Compound: COc1cc2c(c(OC)c1OC)-c1ccc(OC)c(=O)cc1[C@@H](NC(C)=O)CC2 [Colchicine, reference compound]
- Leukocyte concentration (10^6/mL) ([3]; 30 mg/kg): 3.40 ± 0.7 10^6/mL
- IL-1β concentration in exudate ([3]; 30 mg/kg): 1190.9 ± 463.6 pg/mL

Compound: Cc1oc(S(=N)(=O)NC(=O)Nc2c(CC3CCC3)ccc3c2CCC3)cc1C(C)(C)O (stereo not shown) [Compound 21-1, RS- and SS-N-((5-(cyclobutylmethyl)-2,3-dihydro-1H-inden-4-yl)carbamoyl)-4-(2-hydroxypropan-2-yl)-5-methylfuran-2-sulfonimidamide]
- IC50 ([1]; THP-1 pyroptosis): ≤ 100 nM
- IC50 [4]: 26.2 nM
- AUC ([2]; rat, in vivo, iv, 1 mg/kg): 2404 ng·h/mL
- Cl ([2]; rat, in vivo, iv, 1 mg/kg): 7.4 mL/min/kg
- Vss ([2]; rat, in vivo, iv, 1 mg/kg): 0.371 L/kg
- t1/2 ([2]; rat, in vivo, iv, 1 mg/kg): 0.65 h
- AUC ([2]; rat, in vivo, po, 10 mg/kg): 37246 ng·h/mL
- Cmax ([2]; rat, in vivo, po, 10 mg/kg): 12717 ng/mL
- t1/2 ([2]; rat, in vivo, po, 10 mg/kg): 2.3 h

Compound: (RS, RC)- and (SS, RC)-N-((5-(1-cyclopropylethyl)-2,3-dihydro-1H-inden-4-yl-7-d)carbamoyl)-4-(2-hydroxypropan-2-yl)furan-2-sulfonimidamide [Compound 31-2]
- IC50 ([1]; THP-1 pyroptosis): ≤ 100 nM
- IC50 [4]: 25 nM

Compound: (RS, SC)- and (SS, SC)-N-((5-(1-cyclobutylethyl)-2,3-dihydro-1H-inden-4-yl)carbamoyl)-4-(2-hydroxypropan-2-yl)furan-2-sulfonimidamide [Compound 82-1]
- IC50 ([1]; THP-1 pyroptosis): 100 to 500 nM
- IC50 [4]: 5.2 nM
- AUC [2, 5]: 2228 ng·h/mL
- Cl [2, 5]: 11.2 mL/min/kg
- Vss [2, 5]: 0.379 L/kg
- t1/2 [2, 5]: 0.70 h
- F % ([2]; SD rats): 74.0%
- AUC [2, 6]: 16478 ng·h/mL
- Cmax [2, 6]: 5883 ng/mL
- t1/2 [2, 6]: 2.3 h

Compound: RS- and SS-N-((5-(cyclobutylmethyl)-2,3-dihydro-1H-inden-4-yl-7-d)carbamoyl)-4-(2-hydroxypropan-2-yl)furan-2-sulfonimidamide [Compound 39-1]
- IC50 ([1]; THP-1 pyroptosis): ≤ 100 nM
- IC50 [4]: 31.7 nM
